The test system of experiment [1] is A431 cells (skin epitheloids). Nature of the experiment: Cell adhesion test to immobilized peptides, A431. It is filed as cell-based. Here is the method:
Dose-dependent cell adhesion of cell line A431 to various peptides 1, 2 and 3. The peptides were immobilized in 96-well plates at the concentrations given on the abscissa. 8×10^4 cells were deposited in each well and plates were incubated at 37° C. for 1 hour. After washing, attached cells were fixed and cell adhesion was measured as described in the methodology section.
(§1) Peptides 1, 2 and 3 were used for the cell adhesion experiments. A range of 7 decreasing concentrations (100 micrograms/ml, 50 micrograms/ml, 25 micrograms/ml, 12.5 micrograms/ml, 6.25 micrograms/ml, 3.125 micrograms/ml and 1.562 micrograms/ml) was made up by successive dilution in PBS (Phosphate Buffer Saline, KH2PO4 1.54 mM; Na2HPO4 1.42 mM; NaCl-131 mM) using a starting solution at a concentration of 1 mg/ml. These solutions were immediately distributed onto a 96-well culture plate (Greinher, Dutscher, Brumath, France) at a rate of 100 μl per well. Plates were then placed at +4° C. for 16 to 18 hours. The solutions were then removed by turning the plates and each well was saturated with a 1% PBS-BSA solution (bovine serum albumin). Three additional wells without the substrate underwent the same treatment and were used as blanks.
(§2) Epithelial cells were detached from the culture dishes using a trypsin/EDAT solution (0.05-0.02%) then suspended in DMEM medium without additives for the cell lines and in KBM-2 without additive for human keratinocytes. The number of seeded cells per well is given in the graphs (50,000 to 100,000 cells per well).
(§3) After cell seeding, the multi-well plates were placed in an incubator at 37° C. under 5% CO2. After incubation for 30 to 60 minutes, cells were observed under a phase contrast microscope in order to verify that the test was conducted correctly. The adhesion medium was then removed and each well was washed in a sterile PBS solution to remove non-adhering cells. The remaining cells, attached to the substrate, were then fixed using a solution of 1% glutaraldehyde in PBS for 15 minutes. The glutaraldehyde solution as removed and the cells were stained with a crystal violet solution diluted to 1% in distilled water for 30 minutes.
(§4) After rinsing in water several times, cells were permeabilized by means of a 0.02% triton solution for 15 minutes in order to solubilize the crystal violet. Absorbances were read at 570 nm using an ELISA plate reader (MR500, Dynatech, Guernsey, Channel Islands). Each experimental point was carried out in triplicate. The blank value represented the mean absorbance of 3 control wells (BSA). This was subtracted from each of the optical density values for the experimental points. We then calculated the mean for the three absorbance values for each of the triplicate samples.
(§5) The results are presented in the form of a graph with the absorbance values on the ordinate and the various substrate concentrations on the abscissa. Attached cells were photographed by phase contrast microscopy.
The following cells from epithelial cell lines were used initially (commonly used in preliminary studies on cell adhesion): • line HT1080 cells (human fibrosarcoma), American Type Culture Collection CCL-121. • line HB100 cells (human mammary epithelium), American Type Culture Collection HTB-124. • line A431 cells (skin epitheliods), American Type Culture Collection CRL-1555.

Another experiment relates to HBL100 cells. Nature of the experiment: Cell proliferation test (XTT), HBL100. It is filed as cell-based, human. The conditions noted are these: HBL100, peptide 0.5% and 1%, serum-free medium, 5th hour. The procedure:
HT1080 cells (A) and HBL100 cells (B) were seeded in 96-well plates at a rate of 10,000 cells per well. After 24 hours, the culture medium was removed and replaced with serum-free medium containing the peptide quantities given in the graphs and reagent XTT. The plates were then placed in the incubator at 37° C. and absorbance readings were taken at 1 h, 2 h, 3 h, 4 h and 5 h. Peptide-free controls were carried out on the same plate.
(§6) The effect of the peptide on cell proliferation was analysed with the aid of a calorimetric test (Cell Proliferation Kit XTT, Roche Diagnostics, Meylan, France) on the cells use for the cell adhesion test, i.e. HT1080, A431, HBL100 cells and normal human keratinocytes from young and elderly individuals.
(§7) The chemical reaction used in the test is based on the production of NADPH by living cells, leading to the reduction of yellow tetrazolium XTT salts to orange formazan salts. Absorbance was measured at 490 nm using an ELISA plate reader. Cells were seeded in 96-well plates at a rate of 10,000 cells per well (6 wells/condition) in KBM-2 culture medium. After 24 hours in culture at 37° C. with 5% CO2, the culture medium was removed and replaced with serum-free medium containing the peptide quantities given in the graphs and the test reagent. The plates were then placed in the incubator at 37° C. and absorbance readings were taken at 1 h, 2 h, 3 h, 4 h and 5 h. […]

Experiment [2] has as its system normal human keratinocytes. Nature of the experiment: Cell adhesion test to immobilized peptides, normal human keratinocytes. Type of experiment: cell-based. The procedure:
Dose-dependent cell adhesion of normal human keratinocytes to various peptides 1, 2 and 3. The peptides were immobilized in 96-well plates at the concentrations given on the abscissa. 10^5 cells were deposited in each well and plates were incubated at 37° C. for 1 hour. After washing, attached cells were fixed and cell adhesion was measured as described in the methodology section.
as §1, §2, §3, §4, §5
Freshly isolated normal human keratinocytes were used in a second experiment. As the basal keratinocytes of the epidermis are in direct contact with LN-5 in the skin, it was necessary to test their adhesion capacity to the peptide in question. Human keratinocytes were obtained from a foreskin biopsy (surgery waste, Pavillon T-Bis, Eduard Herriot Hospital). […]

The test system of a further experiment is NHK-young. Nature of the experiment: Cell proliferation test (XTT), NHK-young. Type of experiment: cell-based, human. The settings on record: peptide 0.05% and 0.1%, 5th hour. The procedure: NHK-10 years and NHK-71 years were seeded in 96-well plates at a rate of 10,000 cells per well. After 24 hours, the culture medium was removed and replaced with serum-free medium containing the peptide quantities given in the graphs and reagent XTT. The plates were then placed in the incubator at 37° C. and absorbance readings were taken at 1 h, 2 h, 3 h, 4 h and 5 h. Peptide-free controls were carried out on the same plate.
as §6, §7

A value given as a limit tells only on which side of the number the result lay.

As to “TALRIRATYGEY (Human laminin 5) [Peptide 1]”, the entries for the “immobilized peptide quantity at which adhesion occurred” value in experiment [1] (A431) and in experiment [2] (FIG. 5) were 0.62 micrograms and 0.15 micrograms, respectively. Moreover, the “immobilized peptide quantity at which maximum adhesion was achieved” value in experiment [1] (A431) was found to be 1.2 micrograms; in experiment [2] (FIG. 5) it was 0.62 micrograms. The “cell adhesion to immobilized peptide” value in experiment [1] (A431, 0 to 10 micrograms immobilized peptide, 8×10^4 cells per well, 1 hour 37° C., absorbance 570 nm) is “led to cell adhesion”; in experiment [2] (0 to 10 micrograms immobilized peptide, 10^5 cells per well, 1 hour 37° C., absorbance 570 nm), “effect also occurred”. The “mean increase in cell proliferation compared to the control” value in the experiment on HBL100 cells is 8%. In addition, the “mean increase in proliferation compared to the control” value in the experiment with NHK-young is on record as at most 7%.

The values above are taken from patent US7645740B2, “Peptide sequence found in Laminin 5 for treating skin impairments” (Laboratoires d'Anjou Centre National de la Recherche …, priority 2004, dated 2010).
